From ChEMBL document CHEMBL1158633, “Synthesis and biological activity of alpha-glucosyl C24:0 and C20:2 ceramides” (2010)

These compounds were tested on iNKT (assay: Induction of cellular expansion in human iNKT cells at 250 nM after 8 days).
Type: functional

In order of rising Activity:
1. CCCCC/C=C\C/C=C\CCCCCCCCCC(=O)N[C@@H](CO[C@H]1O[C@H](CO)[C@@H](O)[C@H](O)[C@H]1O)[C@H](O)[C@H](O)CCCCCCCCCCCCCC  33%
2. CCCCCCCCCCCCCCCCCCCCCCCCCC(=O)N[C@@H](CO[C@H]1O[C@H](CO)[C@H](O)[C@H](O)[C@H]1O)[C@H](O)[C@H](O)CCCCCCCCCCCCCC [RGI-7000]  34%
3. CCCCC/C=C\C/C=C\CCCCCCCCCC(=O)N[C@@H](CO[C@H]1O[C@H](CO)[C@H](O)[C@H](O)[C@H]1O)[C@H](O)[C@H](O)CCCCCCCCCCCCCC  37%
